One block for each molecule: values may come before it.
What was measured:
[1] = tested on: human liver microsomes; assay: Chemical inhibition of GLB metabolite formation in human liver microsomes; conditions: GLB 1.25 μM; for effect on the formation of any of the four metabolites (M1, M2b, M4, M5): SUL […], QUI 0.45 μM, TTEPA 20 μM
[2] = cited from earlier work
[3] = read-out: apparent Km values for GLB metabolism; cited from earlier work
[4] = tested on: CYP3A; conditions: cited from earlier work
[5] = tested on: human liver microsomes
[6] = tested on: CYP2C19; conditions: cited from earlier work
[7] = cited from earlier work; remark: listed apart in the source
[8] = substrate: COc1ccc(Cl)cc1C(=O)NCCc1ccc(S(=O)(=O)NC(=O)NC2CCCCC2)cc1; assay: cells, lysate or membranes named; conditions: substrate depletion, 37.0 °C
[9] = value stated to be within the range
[10] = 1 μM ketoconazole, no inhibitor = 100%
[11] = 4 μM montelukast, no inhibitor = 100%
[12] = other: CYP2C8 supersomes 40 pmol/ml
[13] = other: CYP3A5 supersomes 30 pmol/ml
[14] = other: CYP2C19 supersomes 30 pmol/ml

Molecule: Nc1ccc(S(=O)(=O)Nc2ccnn2-c2ccccc2)cc1 [Sulfaphenazole, sulfaphenazole]
effect on the formation of any of the four metabolites (M1, M2b, M4, M5) [1]: no significant effects

Molecule: COc1ccc(Cl)cc1C(=O)NCCc1ccc(S(=O)(=O)NC(=O)NC2CCCCC2)cc1 [glyburide, Glyburide]
peak plasma concentration ([2]; after a single oral dose of 20 mg GLB): approximately 1.25 μM
free therapeutic plasma concentration [2, 9]: approximately 1.25 nM
total therapeutic plasma concentration [2, 9]: ~0.125 µM
Km [3]: 5 to 11 µM

Molecule: CC(=O)N1CCN(c2ccc(OCC3COC(Cn4ccnc4)(c4ccc(Cl)cc4Cl)O3)cc2)CC1 (stereo not drawn) [ketoconazole]
formation of M1, % of the controls [1, 10]: approximately 60%
formation of M4, % of the controls [1, 10]: ~5%
formation of M5, % of the controls [1, 10]: ~4%

Molecule: C=C[C@H]1C[N@@]2CC[C@H]1C[C@@H]2[C@@H](O)c1ccnc2ccc(OC)cc12 [quinidine]
effect on the formation of any of the four metabolites (M1, M2b, M4, M5) [1]: no significant effects

peak area of metabolite as % of that of M5 [5]: ~8%
Molecule: COc1ccc(Cl)cc1C(=O)NCCc1ccc(S(=O)(=O)NC(=O)N[C@@H]2CCCC[C@H]2O)cc1 (relative stereo) [M4, 2-trans-hydroxycyclohexyl glyburide]

Molecule: COc1ccc2[nH]c([S+]([O-])Cc3ncc(C)c(OC)c3C)nc2c1 (stereo not drawn) [omeprazole]
Ki [6]: 3000 nM

peak area of metabolite as % of that of M5 [5]: ~16%
Molecule: COc1ccc(Cl)cc1C(=O)NCCc1ccc(S(=O)(=O)NC(=O)NC2CCCC(O)C2)cc1 (stereo not drawn) [M3, 3-trans-hydroxycyclohexyl glyburide]

Molecule: S=P(N1CC1)(N1CC1)N1CC1 [thioTEPA, triethylenethiophosphoramide]
effect on the formation of any of the four metabolites (M1, M2b, M4, M5) [1]: no significant effects

Molecule: CC(C)(O)c1ccccc1CC[C@@H](SCC1(CC(=O)O)CC1)c1cccc(/C=C/c2ccc3ccc(Cl)cc3n2)c1 [montelukast]
formation of M1, % of the controls [1, 11]: approximately 50%
formation of M4, % of the controls [1, 11]: ~65%

peak area of metabolite as % of that of M5 [5]: approximately 56%
Molecule: COc1ccc(Cl)cc1C(=O)NCCc1ccc(S(=O)(=O)NC(=O)N[C@H]2CC[C@H](O)CC2)cc1 [M1, 4-trans-hydroxycyclohexyl glyburide]
pharmacological activity [7]: pharmacologically active

relative metabolite formation in human liver microsome incubations [5]: major metabolite formed
Molecule: an ethyl hydroxycyclohexyl glyburide [M5]

peak area of metabolite as % of that of M5 [5]: ~43%
Molecule: COc1ccc(Cl)cc1C(=O)NCCc1ccc(S(=O)(=O)NC(=O)N[C@H]2CCC[C@@H](O)C2)cc1 (relative stereo) [M2b, 3-cis-hydroxycyclohexyl glyburide (axial)]
pharmacological activity [7]: pharmacologically active

B1: human CYP2C8 (Homo sapiens) (protein)
chain: MEPFVVLVLCLSFMLLFSLWRQSCRRRKLPPGPTPLPIIGNMLQIDVKDICKSFTNFSKVYGPVFTVYFGMNPIVVFHGYEAVKEALIDNGEEFSGRGNSPISQRITKGLGIISSNGKRWKEIRRFSLTTLRNFGMGKRSIEDRVQEEAHCLVEELRKTKASPCDPTFILGCAPCNVICSVVFQKRFDYKDQNFLTLMKRFNENFRILNSPWIQVCNNFPLLIDCFPGTHNKVLKNVALTRSYIREKVKEHQASLDVNNPRDFIDCFLIKMEQEKDNQKSEFNIENLVGTVADLFVAGTETTSTTLRYGLLLLLKHPEVTAKVQEEIDHVIGRHRSPCMQDRSHMPYTDAVVHEIQRYSDLVPTGVPHAVTTDTKFRNYLIPKGTTIMALLTSVLHDDKEFPNPNIFDPGHFLDKNGNFKKSDYFMPFSAGKRICAGEGLARMELFLFLTTILQNFNLKSVDDLKNLNTTAVTKGIVSLPPSYQICFIPV
Km [8, 12]: 7.7 ± 2.3 µM
kcat [8, 12]: 0.0417 ± 0.0133 s⁻¹
kcat/Km [8, 12]: 5330 ± 500 M⁻¹ s⁻¹

B2: human CYP3A5 (Homo sapiens) (protein)
chain: MDLIPNLAVETWLLLAVSLVLLYLYGTRTHGLFKRLGIPGPTPLPLLGNVLSYRQGLWKFDTECYKKYGKMWGTYEGQLPVLAITDPDVIRTVLVKECYSVFTNRRSLGPVGFMKSAISLAEDEEWKRIRSLLSPTFTSGKLKEMFPIIAQYGDVLVRNLRREAEKGKPVTLKDIFGAYSMDVITGTSFGVNIDSLNNPQDPFVESTKKFLKFGFLDPLFLSIILFPFLTPVFEALNVSLFPKDTINFLSKSVNRMKKSRLNDKQKHRLDFLQLMIDSQNSKETESHKALSDLELAAQSIIFIFAGYETTSSVLSFTLYELATHPDVQQKLQKEIDAVLPNKAPPTYDAVVQMEYLDMVVNETLRLFPVAIRLERTCKKDVEINGVFIPKGSMVVIPTYALHHDPKYWTEPEEFRPERFSKKKDSIDPYIYTPFGTGPRNCIGMRFALMNMKLALIRVLQNFSFKPCKETQIPLKLDTQGLLQPEKPIVLKVDSRDGTLSGE
Km [8, 13]: 4.2 ± 1.5 µM
kcat [8, 13]: 0.0317 ± 0.0122 s⁻¹
kcat/Km [8, 13]: 7670 ± 833 M⁻¹ s⁻¹

B3: human CYP2C19 (Homo sapiens) (protein)
chain: MDPFVVLVLCLSCLLLLSIWRQSSGRGKLPPGPTPLPVIGNILQIDIKDVSKSLTNLSKIYGPVFTLYFGLERMVVLHGYEVVKEALIDLGEEFSGRGHFPLAERANRGFGIVFSNGKRWKEIRRFSLMTLRNFGMGKRSIEDRVQEEARCLVEELRKTKASPCDPTFILGCAPCNVICSIIFQKRFDYKDQQFLNLMEKLNENIRIVSTPWIQICNNFPTIIDYFPGTHNKLLKNLAFMESDILEKVKEHQESMDINNPRDFIDCFLIKMEKEKQNQQSEFTIENLVITAADLLGAGTETTSTTLRYALLLLLKHPEVTAKVQEEIERVIGRNRSPCMQDRGHMPYTDAVVHEVQRYIDLIPTSLPHAVTCDVKFRNYLIPKGTTILTSLTSVLHDNKEFPNPEMFDPRHFLDEGGNFKKSNYFMPFSAGKRICVGEGLARMELFLFLTFILQNFNLKSLIDPKDLDTTPVVNGFASVPPFYQLCFIPV
Km [8, 14]: 15.1 ± 2.3 µM
kcat [8, 14]: 0.16 ± 0.025 s⁻¹
kcat/Km [8, 14]: 10500 ± 333 M⁻¹ s⁻¹
